Results published in PubChem BioAssay AID2060491 (Molecular Pharmacology Branch, DTP, NCI, 2025).

System: 857933-349-R-J2-PDC complex spheroids, viability
Assay: Anticancer human tumor 857933-349-R-J2-PDC patient-derived colon adenocarcinoma cell line growth inhibition [GQUAD]
Settings: for IC50: curve of first compound; for viability, T/C: stronger effect = lower value
In short: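 Viability of tumor cells grown as complex spheroids with endothelial and stromal cells, exposed to drug combinations. Top concentration at or near clinical Cmax (else 10 microM), diluted in half-log increments.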

[1] = second compound 0.0316 µM, first compound 0.0316 µM
[2] = second compound 0.0316 µM, first compound 0.1 µM
[3] = second compound 0.0316 µM, first compound 0.316 µM
[4] = second compound 0.0316 µM, first compound 1 µM
[5] = second compound 0.0316 µM, first compound 3.16 µM
[6] = second compound 0.0316 µM, first compound 10 µM
[7] = second compound 0.1 µM, first compound 0.0316 µM
[8] = second compound 0.1 µM, first compound 0.1 µM
[9] = second compound 0.1 µM, first compound 0.316 µM
[10] = second compound 0.1 µM, first compound 1 µM
[11] = second compound 0.1 µM, first compound 3.16 µM
[12] = second compound 0.1 µM, first compound 10 µM
[13] = second compound 0.316 µM, first compound 0.0316 µM
[14] = second compound 0.316 µM, first compound 0.1 µM
[15] = second compound 0.316 µM, first compound 0.316 µM
[16] = second compound 0.316 µM, first compound 1 µM
[17] = second compound 0.316 µM, first compound 3.16 µM
[18] = second compound 0.316 µM, first compound 10 µM
[19] = second compound 1 µM, first compound 0.0316 µM
[20] = second compound 1 µM, first compound 0.1 µM
[21] = second compound 1 µM, first compound 0.316 µM
[22] = second compound 1 µM, first compound 1 µM
[23] = second compound 1 µM, first compound 3.16 µM
[24] = second compound 1 µM, first compound 10 µM
[25] = second compound 3.16 µM, first compound 0.0316 µM
[26] = second compound 3.16 µM, first compound 0.1 µM
[27] = second compound 3.16 µM, first compound 0.316 µM
[28] = second compound 3.16 µM, first compound 1 µM
[29] = second compound 3.16 µM, first compound 3.16 µM
[30] = second compound 3.16 µM, first compound 10 µM
[31] = second compound 10 µM, first compound 0.0316 µM
[32] = second compound 10 µM, first compound 0.1 µM
[33] = second compound 10 µM, first compound 0.316 µM
[34] = second compound 10 µM, first compound 1 µM
[35] = second compound 10 µM, first compound 3.16 µM
[36] = second compound 10 µM, first compound 10 µM
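Note: spheroids exposed to compounds for one week before readout.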
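Throughout, for viability, T/C: percent viability relative to vehicle DMSO wells taken as 100%.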

C=CCn1c(=O)c2cnc(Nc3ccc(N4CCN(C)CC4)cc3)nc2n1-c1cccc(C(C)(C)O)n1 + CN(C)c1ccc(Nc2c3ccc(NC(=O)CCN4CCCC4)cc3nc3cc(NC(=O)CCN4CCCC4)ccc23)cc1
IC50 (second compound 0.0316 µM): 1840 nM | IC50 (second compound 0.1 µM): 1650 nM | IC50 (second compound 0.316 µM): 1510 nM | IC50 (second compound 1 µM): 1570 nM | IC50 (second compound 3.16 µM): 1190 nM | IC50 (second compound 10 µM): 756 nM | viability, T/C [1]: 102% | viability, T/C [2]: 102% | viability, T/C [3]: 96.6% | viability, T/C [4]: 75.7% | viability, T/C [5]: 26.1% | viability, T/C [6]: 27.9% | viability, T/C [7]: 101% | viability, T/C [8]: 99.4% | viability, T/C [9]: 99.2% | viability, T/C [10]: 68.6% | viability, T/C [11]: 24.3% | viability, T/C [12]: 27.3% | viability, T/C [13]: 97.7% | viability, T/C [14]: 95.3% | viability, T/C [15]: 101% | viability, T/C [16]: 63.1% | viability, T/C [17]: 28.4% | viability, T/C [18]: 24.9% | viability, T/C [19]: 94.3% | viability, T/C [20]: 81.6% | viability, T/C [21]: 87.8% | viability, T/C [22]: 60.8% | viability, T/C [23]: 32.5% | viability, T/C [24]: 33.8% | viability, T/C [25]: 88% | viability, T/C [26]: 73.5% | viability, T/C [27]: 75.5% | viability, T/C [28]: 53.5% | viability, T/C [29]: 31.8% | viability, T/C [30]: 28.6% | viability, T/C [31]: 62.1% | viability, T/C [32]: 62.6% | viability, T/C [33]: 57.6% | viability, T/C [34]: 47.7% | viability, T/C [35]: 32.2% | viability, T/C [36]: 25.2%

CC(C)(O)C1CCC(Nc2ccc3ncc(-c4cccc(C(F)(F)F)c4)n3n2)CC1 (stereo not drawn) + CN(C)c1ccc(Nc2c3ccc(NC(=O)CCN4CCCC4)cc3nc3cc(NC(=O)CCN4CCCC4)ccc23)cc1
IC50 (second compound 0.0316 µM): 801 nM | IC50 (second compound 0.1 µM): 732 nM | IC50 (second compound 0.316 µM): 691 nM | IC50 (second compound 1 µM): 684 nM | IC50 (second compound 3.16 µM): 596 nM | IC50 (second compound 10 µM): 456 nM | viability, T/C [1]: 117% | viability, T/C [2]: 98.4% | viability, T/C [3]: 97.5% | viability, T/C [4]: 39.1% | viability, T/C [5]: 2.79% | viability, T/C [6]: 2.75% | viability, T/C [7]: 102% | viability, T/C [8]: 94% | viability, T/C [9]: 89.3% | viability, T/C [10]: 35.6% | viability, T/C [11]: 2.84% | viability, T/C [12]: 2.87% | viability, T/C [13]: 99% | viability, T/C [14]: 94.3% | viability, T/C [15]: 87.2% | viability, T/C [16]: 32.6% | viability, T/C [17]: 3.05% | viability, T/C [18]: 3.1% | viability, T/C [19]: 94% | viability, T/C [20]: 83.2% | viability, T/C [21]: 83.3% | viability, T/C [22]: 33.8% | viability, T/C [23]: 3.77% | viability, T/C [24]: 3.15% | viability, T/C [25]: 78.9% | viability, T/C [26]: 75.5% | viability, T/C [27]: 74.2% | viability, T/C [28]: 30.4% | viability, T/C [29]: 7.32% | viability, T/C [30]: 5.21% | viability, T/C [31]: 62.9% | viability, T/C [32]: 66.4% | viability, T/C [33]: 59.4% | viability, T/C [34]: 30.1% | viability, T/C [35]: 15.3% | viability, T/C [36]: 9.67%

Cc1[nH]c2ccccc2c1CCNCc1ccc(/C=C/C(=O)NO)cc1 + CN(C)c1ccc(Nc2c3ccc(NC(=O)CCN4CCCC4)cc3nc3cc(NC(=O)CCN4CCCC4)ccc23)cc1
IC50 (second compound 0.0316 µM): > 316 nM | IC50 (second compound 0.1 µM): > 316 nM | IC50 (second compound 0.316 µM): > 316 nM | IC50 (second compound 1 µM): > 316 nM | IC50 (second compound 3.16 µM): > 316 nM | IC50 (second compound 10 µM): > 316 nM | viability, T/C (second compound 0.0316 µM, first compound 0.000999 µM): 105% | viability, T/C (second compound 0.0316 µM, first compound 0.00316 µM): 99.6% | viability, T/C (second compound 0.0316 µM, first compound 0.00999 µM): 109% | viability, T/C [1]: 101% | viability, T/C (second compound 0.0316 µM, first compound 0.0999 µM): 109% | viability, T/C [3]: 60.2% | viability, T/C (second compound 0.1 µM, first compound 0.000999 µM): 105% | viability, T/C (second compound 0.1 µM, first compound 0.00316 µM): 102% | viability, T/C (second compound 0.1 µM, first compound 0.00999 µM): 99.3% | viability, T/C [7]: 103% | viability, T/C (second compound 0.1 µM, first compound 0.0999 µM): 101% | viability, T/C [9]: 61.5% | viability, T/C (second compound 0.316 µM, first compound 0.000999 µM): 104% | viability, T/C (second compound 0.316 µM, first compound 0.00316 µM): 103% | viability, T/C (second compound 0.316 µM, first compound 0.00999 µM): 103% | viability, T/C [13]: 99.8% | viability, T/C (second compound 0.316 µM, first compound 0.0999 µM): 117% | viability, T/C [15]: 60.5% | viability, T/C (second compound 1 µM, first compound 0.000999 µM): 97.1% | viability, T/C (second compound 1 µM, first compound 0.00316 µM): 91.7% | viability, T/C (second compound 1 µM, first compound 0.00999 µM): 95.7% | viability, T/C [19]: 97.9% | viability, T/C (second compound 1 µM, first compound 0.0999 µM): 105% | viability, T/C [21]: 59.5% | viability, T/C (second compound 3.16 µM, first compound 0.000999 µM): 80.6% | viability, T/C (second compound 3.16 µM, first compound 0.00316 µM): 79.8% | viability, T/C (second compound 3.16 µM, first compound 0.00999 µM): 93.5% | viability, T/C [25]: 80.6% | viability, T/C (second compound 3.16 µM, first compound 0.0999 µM): 91.7% | viability, T/C [27]: 55.1% | viability, T/C (second compound 10 µM, first compound 0.000999 µM): 64% | viability, T/C (second compound 10 µM, first compound 0.00316 µM): 73.2% | viability, T/C (second compound 10 µM, first compound 0.00999 µM): 70% | viability, T/C [31]: 76.4% | viability, T/C (second compound 10 µM, first compound 0.0999 µM): 72.2% | viability, T/C [33]: 41.7%

O=C(NO)c1cnc(N2CCN(S(=O)(=O)c3ccc4ccccc4c3)CC2)nc1 + CN(C)c1ccc(Nc2c3ccc(NC(=O)CCN4CCCC4)cc3nc3cc(NC(=O)CCN4CCCC4)ccc23)cc1
IC50 (second compound 0.0316 µM): 1480 nM | IC50 (second compound 0.1 µM): 1510 nM | IC50 (second compound 0.316 µM): 1310 nM | IC50 (second compound 1 µM): 1230 nM | IC50 (second compound 3.16 µM): 1130 nM | IC50 (second compound 10 µM): 658 nM | viability, T/C [1]: 106% | viability, T/C [2]: 100% | viability, T/C [3]: 101% | viability, T/C [4]: 75.1% | viability, T/C [5]: 0.74% | viability, T/C [6]: 0.27% | viability, T/C [7]: 101% | viability, T/C [8]: 99.3% | viability, T/C [9]: 93.8% | viability, T/C [10]: 77.1% | viability, T/C [11]: 0.65% | viability, T/C [12]: 0.57% | viability, T/C [13]: 101% | viability, T/C [14]: 100% | viability, T/C [15]: 93% | viability, T/C [16]: 64.9% | viability, T/C [17]: 1.11% | viability, T/C [18]: 0.38% | viability, T/C [19]: 97.2% | viability, T/C [20]: 97% | viability, T/C [21]: 92.9% | viability, T/C [22]: 60.7% | viability, T/C [23]: 0.83% | viability, T/C [24]: 0.36% | viability, T/C [25]: 89% | viability, T/C [26]: 80.1% | viability, T/C [27]: 92.4% | viability, T/C [28]: 55.7% | viability, T/C [29]: 1% | viability, T/C [30]: 0.3% | viability, T/C [31]: 66.2% | viability, T/C [32]: 68.2% | viability, T/C [33]: 68.5% | viability, T/C [34]: 40% | viability, T/C [35]: 0.55% | viability, T/C [36]: 0.71%
